Experimental data: ChEMBL document CHEMBL1649582, “Novel expression vector for secretion of cecropin AD in Bacillus subtilis with enhanced antimicrobial activity” (Antimicrob Agents Chemother, 2009)
In brackets after ≈: the same amount, converted by molar mass. Activity calls are given as the source filed them. No cut-off for these calls is given here. Where a SMILES comes first, the peptide text is derived from it.

Assays:
Staphylococcus aureus [1] = test: Antimicrobial activity against Staphylococcus aureus IVDC C56005 assessed as microbial growth inhibition at pH <4.0; assay type: functional, organism-based
Escherichia coli [2] = test: Antimicrobial activity against Escherichia coli K99 by microdilution assay; assay type: functional
Escherichia coli [3] = test: Antimicrobial activity against Escherichia coli K88 by microdilution assay; assay type: functional
Salmonella enteritidis = test: Antimicrobial activity against Salmonella enterica serovar Enteritidis IVDC C79-52 by microdilution assay; assay type: functional, Salmonella enterica subsp. enterica serovar Enteritidis
Staphylococcus aureus [4] = test: Antimicrobial activity against Staphylococcus aureus IVDC C56005 assessed as microbial growth inhibition in presence of trypsin; assay type: functional, organism-based
Staphylococcus aureus [5] = test: Antimicrobial activity against Staphylococcus aureus IVDC C56005 assessed as microbial growth inhibition at >85 degC for 20 mins; assay type: functional, organism-based
Staphylococcus aureus [6] = test: Antimicrobial activity against Staphylococcus aureus IVDC C56005 by microdilution assay; assay type: functional
Salmonella typhimurium = test: Antimicrobial activity against Salmonella enterica serovar Typhimurium IVDC C77-31 by microdilution assay; assay type: functional, Salmonella enterica subsp. enterica serovar Typhimurium
Staphylococcus aureus [7] = test: Antimicrobial activity against Staphylococcus aureus IVDC C56005 assessed as microbial growth inhibition at pH 4 to 9; assay type: functional, organism-based
Staphylococcus aureus [8] = test: Antimicrobial activity against Staphylococcus aureus IVDC C56005 assessed as microbial growth inhibition at 55 degC for 20 mins; assay type: functional, organism-based
Staphylococcus aureus [9] = test: Antimicrobial activity against Staphylococcus aureus IVDC C56005 assessed as microbial growth inhibition in presence of proteinase K; assay type: functional, organism-based
Enterococcus faecalis = test: Antimicrobial activity against Streptococcus faecalis IVDC C55614 by microdilution assay; assay type: functional
Staphylococcus aureus [10] = test: Antimicrobial activity against Staphylococcus aureus IVDC C56005 assessed as microbial growth inhibition in presence of pepsin; assay type: functional, organism-based
[11] = Toxicity in human RBCs assessed as induction hemolysis at 0.01 to 200 ug/mL; assay type: cell-based; conditions: erythrocyte
Escherichia coli [12] = test: Antimicrobial activity against Escherichia coli K12D31 by microdilution assay; assay type: functional

- MIC (Escherichia coli [2]): 2 µg/mL (≈ 0.506 µM)
- MIC (Escherichia coli [3]): 2 µg/mL (≈ 0.506 µM)
- MIC (Salmonella enteritidis): 16 µg/mL (≈ 4.05 µM)
- MIC (Staphylococcus aureus [6]): 0.2 µg/mL (≈ 0.0506 µM)
- MIC (Salmonella typhimurium): 8 µg/mL (≈ 2.02 µM)
- MIC (Enterococcus faecalis): 24 µg/mL (≈ 6.07 µM)
- MIC (Escherichia coli [12]): 1.8 µg/mL (≈ 0.456 µM)
SMILES: CC[C@H](C)[C@H](NC(=O)[C@H](CCCCN)NC(=O)[C@H](CCCCN)NC(=O)[C@H](Cc1ccccc1)NC(=O)[C@H](CC(C)C)NC(=O)[C@H](CCCCN)NC(=O)[C@H](Cc1c[nH]c2ccccc12)NC(=O)[C@@H](N)CCCCN)C(=O)N[C@@H](CCC(=O)O)C(=O)N[C@@H](CCCCN)C(=O)N[C@H](C(=O)NCC(=O)N[C@@H](CCC(N)=O)C(=O)N[C@@H](CCCNC(=N)N)C(=O)N[C@H](C(=O)N[C@@H](CCCNC(=N)N)C(=O)N[C@@H](CC(=O)O)C(=O)N[C@@H](C)C(=O)N[C@H](C(=O)N[C@H](C(=O)N[C@@H](CO)C(=O)N[C@@H](C)C(=O)NCC(=O)N1CCC[C@H]1C(=O)N[C@@H](C)C(=O)N[C@H](C(=O)N[C@@H](C)C(=O)N[C@H](C(=O)N[C@H](C(=O)N[C@@H](C)C(=O)N[C@@H](CCC(N)=O)C(=O)N[C@@H](C)C(=O)N[C@H](C(=O)N[C@@H](C)C(=O)N[C@@H](CC(C)C)C(=O)N[C@@H](C)C(=O)N[C@@H](CCCCN)C(=O)O)[C@@H](C)O)C(C)C)[C@@H](C)O)C(C)C)[C@@H](C)CC)C(C)C)C(C)C)C(C)C [CECROPIN AD] (H-KWKLFKKIEKVGQRVRDAVISAGPAVATVAQATALAK-OH)
- growth inhibition (GI) (Staphylococcus aureus [1]): inactive
- growth inhibition (GI) (Staphylococcus aureus [4]): Active
- growth inhibition (GI) (Staphylococcus aureus [5]): inactive
- growth inhibition (GI) (Staphylococcus aureus [7]): Active
- growth inhibition (GI) (Staphylococcus aureus [8]): Active
- growth inhibition (GI) (Staphylococcus aureus [9]): Active
- growth inhibition (GI) (Staphylococcus aureus [10]): Active
- Activity [11]: Non-toxic
